Measurements reported in US20030207813A1, “Retroviral protease inhibitor combinations” (priority 1995, published 2003).
Converted amounts (≈) assume the structure as drawn. Read-outs that look alike come from different tables or passages of the source.

Experiments:
[1] = test system: RFRR (resistant strains selected from RF against Examples 1 and 2); assay: CEM-T4 cell infection assay, reverse transcriptase readout, resistant isolate RFRR; type: cell-based, HIV-1; conditions: Human immunodeficiency virus 1, 168 h, Table 6, CEM-T4 cells, 7 days, read-out: Virus Isolate (EC50 ng/mL) RFRR
Excerpt: (§1) RF represents the HIV-1 strain HIV-LRF and RFR represents a mixture of resistant strains obtained by selection of RF against the compound of Example 1. RFR comprises a mixture of viral strains having protease genotypes of G48V (14/40 clones); G48V, V82A (18/40 clones); G48V, L90S (2/40 clones); G48V, 154T, V82A (1/40 clones); G48M (1/40 clones); G48V, Q61H (1/40 clones); V13I, G48V (1/40 clones); G48V, F53L, V82A (1/40 clones); and G48V, V82A, C95Y (1/40 clones). RFR2 represents a mixture of resistant strains obtained by cloning RFR by three rounds of growth at limiting dilution. RFR2 comprises a mixture of viral strains having protease genotypes of G48V, V82A (13/15 clones); G17E, G48V, V82A (1/15 clones); and G48V, V82A, N37D, N88D (1/15 clones). RFRR represents a mixture of resistant strains obtained by selection of RF against the compounds of Examples 1 and 2 and then cloning by three rounds of growth at limiting dilution. RFRR comprises a mixture of viral strains having protease genotypes of G48V, 154T, L63P, V82A (7/9 clones); G48V, 154T, L63P, V82A, N88S (1/9 clones); and G48V, 154T, L63P, G73M, V82A (1/9 clones). SF162 represents the HIV-1 strain SF-162 and SF162R represents a mixture of resistant strains obtained by selection of SF162 against the compound of Example 1. SF162R comprises a mixture of viral strains having protease genotypes of M461, F53L, L63P, A71V, N88D (2/3 clones); and M46I, F53L, L63P, A71V, N88D, Q92R (1/3 clones). 89-959 represents the HIV-1 strain 89-959 and 89-959R represents a mixture of resistant strains obtained by selection of 89-959 against the compound of Example 2. 89-959R comprises a mixture of viral strains having protease genotypes of N88S (4/5 clones); and D25N, T26A, D30N, D37N, R41K, G73D, R87K, N88S (1/4 clones). NL4 represents the HIV-1 strain HIV-1NL4-3. NL4(G48V) represents a strain having a synthetically generated site-directed mutation in the protease from glycine to valine at amino acid position number 48. NL4(I84V) represents a strain having a synthetically generated site-directed mutation in the protease from isoleucine to valine at amino acid position number 84. NL4(R8Q,M46I) represents a strain having synthetically generated site-directed mutations in the protease from arginine to glutamine at amino acid position number 8 and methionine to isoleucine at amino acid position number 46. NL4(P22-538) represents a mixture of resistant strains obtained by selection of HIV-1NL4-3 against the compound of Example 10 after 22 passages comprising protease genotypes M46I, L63P, A71V, V82F, I84V (4/10); M46I, L63P, V82F, I84V (3/10); and M46I, A71V, V82F, I84V (3/10). NL4(P37-538) represents resistant strains obtained by selection of HIV-1NL4-3 against the compound of Example 10 after 37 passages comprising protease genotype M46I, L63P, A71V, 184A. NL4(538/524) represents resistant strains obtained by selection of NL4(P22-538) against the compound of Example 5 after 24 passages comprising protease genotype M46I, L63P, A71V, 184A. NL4(538/P7-AG) represents a mixture of resistant strains obtained by selection of NL4(P22-538) against the compound of Example 12 after 7 passages comprising protease genotypes M46I, L63P, A71V, 184A; and V321, V82I. NL4(538/P24-AG) represents resistant strains obtained by selection of NL4(P22-538) against the compound of Example 12 after 24 passages comprising protease genotype M46I, L63P, A71V, 184A. NLA(P19-003) represents resistant strains obtained by selection of HIV-1^NL4-3 against the compound of Example 9 after 19 passages comprising protease genotype R8K, M46I. NL4(P34-003) represents resistant strains obtained by selection of HIV-1^NL4-3 against the compound of Example 9 after 34 passages comprising protease genotype R8K, M46I, L63P, A71V, L90M.
(§2) The viral isolate resistance results summarized in Tables 4-6 were generated according to the following assay procedure or minor modifications thereof. Assays are performed in 96-well tissue culture plates. […]

[2] = test system: RFR2 (RFR cloned by three rounds of limiting dilution); assay: CEM-T4 cell infection assay, reverse transcriptase readout, resistant isolate RFR2; type: cell-based, HIV-1; conditions: Human immunodeficiency virus 1, 168 h, Table 6, CEM-T4 cells, 7 days, read-out: Virus Isolate (EC50 ng/mL) RFR2
Excerpt: as §1, §2

HIV-1RF = assay: CEM-T4 cell infection assay, reverse transcriptase readout, isolate RF; type: cell-based; conditions: Human immunodeficiency virus 1, CEM-T4, 168 h, 7 days, read-out: Virus Isolate (EC50 ng/mL) RF
Excerpt: as §1, §2

| Structure (SMILES) | EC50 [1] [ng/mL] | EC50 [2] [ng/mL] | EC50 (HIV-1RF; Table 4, CEM-T4 cells) [ng/mL] | EC50 (HIV-1RF; Table 5, CEM-T4 cells) [ng/mL] | EC50 (HIV-1RF; Table 6, CEM-T4 cells) [ng/mL] |
| --- | --- | --- | --- | --- | --- |
| CC(C)CN(C[C@@H](O)[C@H](Cc1ccccc1)NC(=O)[C@H](CC(N)=O)NC(=O)c1ccc2ccccc2n1)C(=O)NC(C)(C)C (relative stereo) [Example 1, [1S-[1R*(R*),2S*]]-N^1-[3-[[[(1,1-dimethylethyl)amino]carbonyl])2-methylpropyl)amino]-2-hydroxy-1-(phenylmethyl)propyl]-2-[(2-quinolinylcarbonyl)amino]-butanediamide] | 5610 (≈ 9.27 µM) | 880 (≈ 1.46 µM) | 30 (≈ 0.0496 µM) | 24 (≈ 0.0397 µM) | 19 (≈ 0.0314 µM) |
| CC(C)CCN(C[C@@H](O)[C@H](Cc1ccccc1)NC(=O)[C@H](CC(N)=O)NC(=O)c1ccc2ccccc2n1)C(=O)NC(C)(C)C (relative stereo) [Example 7, [1S-[1R*(R*),2S*]]-N^1-[3-[[[(1,1-dimethylethyl)amino]carbonyl](3-methylbutyl)amino]-2-hydroxy-1-(phenylmethyl)propyl]-2-[(2-quinolinylcarbonyl)amino]-butanediamide] |  |  |  | 2 (≈ 0.00323 µM) |  |
| CC(C)(C)NC(=O)[C@@H]1CC2CCCC[C@@H]2CN1C[C@@H](O)[C@H](Cc1ccccc1)NC(=O)[C@H](CC(N)=O)NC(=O)c1ccc2ccccc2n1 (stereo in doubt) [Example 6, N-tert-Butyl decahydro-2-[2(R)-hydroxy-4-phenyl-3(S)-[[N-(2-quinolylcarbonyl)-L-asparaginyl]amino]butyl]-(4aR,8aS)-isoquinoline-3(S)-carboxamide] | 962 (≈ 1.43 µM) | 31 (≈ 0.0462 µM) | 12 (≈ 0.0179 µM) |  | 6 (≈ 0.00894 µM) |
| CNCC(=O)N[C@H](C(=O)N[C@@H](Cc1ccccc1)[C@H](O)CN(CCC(C)C)C(=O)NC(C)(C)C)C(C)(C)C [Example 2, (2R,3S)-3-(N-methylaminoacetyl-L-tert-butylglycinyl)amino-1-(N-isoamyl-N-(tert-butylcarbamoyl))amino-4-phenyl-2-butanol] | 1110 (≈ 2.08 µM) | 367 (≈ 0.688 µM) | 40 (≈ 0.0749 µM) |  | 35 (≈ 0.0656 µM) |
| CC(C)(C)NC(=O)[C@@H]1CN(Cc2cccnc2)CCN1C[C@@H](O)C[C@@H](Cc1ccccc1)C(=O)N[C@H]1c2ccccc2C[C@H]1O [Example 5, N-(2(R)-Hydroxy-1(S)-indanyl)-2(R)-phenylmethyl-4(S)-hydroxy-5-(1-(4-(3-pyridylmethyl)-2(S)-N′-(t-butylcarboxamido)-piperazinyl))-pentaneamide] | 982 (≈ 1.6 µM) | 57 (≈ 0.0929 µM) | 44 (≈ 0.0717 µM) |  | 6 (≈ 0.00978 µM) |
| CC(C)CN(C[C@@H](O)[C@H](Cc1ccccc1)NC(=O)[C@H](CC(N)=O)NC(=O)c1ccc2ccccc2n1)S(=O)(=O)NC(C)(C)C [Example 8, N-[3-[N^2-[N^1-(1,1-dimethylethyl)aminosulfonyl]-N^2-(2-methylpropyl)amino]-2R-hydroxy-1S-(phenylmethyl)propyl]-2S-[(2-quinolinylcarbonyl)amino]butanediamide] |  |  |  | 2 (≈ 0.00312 µM) |  |
